Source: patent US10793558B2, “Quinoline oxadiazoles as cytoprotective agents” (priority 2015, dated 2020)

Legend:
[1] = test system: CSM14.1 neuronal cells; test: Cell Survival Assay (thapsigargin-treated CSM14.1 neuronal cells, CELLTITER-GLO luminescence); assay type: cell-based; settings: CSM14.1 cells, about 15 μM thapsigargin, overnight (about 16 to 24 hrs), 2 hrs preincubation
Description: CSM14.1 neuronal cells were maintained in Complete Medium at 32° C.; wherein the Complete Medium contained Dulbecco's modified eagle medium (DMEM) with 10% fetal bovine serum (FSB), 1% L-glutamine, 100 IU/mL penicillin, and 100 μg/mL streptomycin. […] Seeding was performed using a MultiDrop Combi reagent broadcaster. The plates were incubated overnight at 32° C. A test compound was prepared by 2-fold serial dilution in 100% DMSO using a BIOMEK® 2000 liquid handler (Beckman Coulter). A dose-response curve containing 10 concentrations of the test compound was obtained. Using a BIOMEK® FX liquid handler (Beckman Coulter), 2.5 μL of the test compound was transferred from the 100% DMSO serial dilution plate to an intermediate plate containing 47.5 μL of DMEM Assay Medium containing 2% FBS, 100 IU/mL penicillin, and 100 μg/mL streptomycin and mixed. […] The tissue culture media (4 μL) containing vehicle only was transferred manually to each control cell using a 16 channel electronic pipette. […] High luminescence indicates cell survival.

[2] = test system: HEK293 cells; N2a cells; test: Cell Rescue Assay: Protection against Thapsigargin (TG)-induced Cell-death (ALAMARBLUE); assay type: cell-based, human (HEK293); mouse (N2a); settings: compound 20 μM, 2 hrs before thapsigargin (15 μM for HEK293 cells and 1 μM for N2a cells), 24 hrs; cell line not given; read-out: Cell Survival %
Description: Protection against Thapsigargin (TG)-induced Cell-death. Human embryonic kidney (HEK293) cells were grown in Dulbecco's Modified Eagle's Medium (DMEM) with 10% FBS and 1% antibiotic antimycotic solution (ABAM). Mouse neuroblastoma (N2a) cells were grown in 1:1 DMEM:OPTI-MEM® with 5% FBS and 1% ABAM. All cells were grown in 10% CO2 in a humidified environment of the incubator. Cells grown in 96-well plates were exposed to a test compound (20 μM) for 2 hrs before addition of thapsigargin (15 μM for HEK293 cells and 1 μM for N2a cells) to induce ER stress. After incubation in cell-culture incubator for 24 hrs, ALAMARBLUE® regent (10% v/v) was added to the wells. Fluorescence reading was taken 2 hrs after the addition of the ALAMARBLUE® regent. Cell-viability was calculated as a percentage of relative fluorescence unit (RFU) compared to control. […] The biological results are summarized in Table 2, where each compound was tested at 20 μM and where A represents a viability greater than 50%, B represents a viability greather than 10% and less than 50%, C represents a value below 10%.

[3] = test system: Ob/ob mice; test: Effect of a SERCA Agonist on the Level of Blood Glucose in Ob/ob mice; assay type: in vivo, mouse; settings: 50 mg/kg i.p. once a day, 5 days, fasting glucose at baseline and 4 days after administration
Description: Ob/ob mice (10 weeks old, n=7) were intraperitoneally (i.p.) injected with 100 μL of a solution containing 0 (vehicle) or 50 mg/kg of a test compound once a day for a total of 5 days. Fasting glucose was measured at baseline and 4 days after the administration of the test compound. Glucose levels were measured in blood samples drawn from the tail vein using a handheld glucose sensor. Compound effects on blood glucose are shown in Table 5 where A represents a 10-20% reduction in blood glucose, B represents a 21-30% reduction in blood glucose, and C represents a greater than 30% reduction in blood glucose levels.

[4] = test system: SERCA; test: Ca-ATPase Assay (NADH-linked, enzyme-coupled ATPase assay, microsomal preparations from HEK 293 cells); assay type: biochemical, human; settings: pH 7.0, 5 mM ATP, relative to controls
Description: A Ca-ATPase assay was performed using microsomal preparations from HEK 293 cells at a series of calcium concentrations corresponding to the physiological range, relative to controls. The ATP hydrolysis rate was measured over a range of calcium concentrations in the presence of test compounds using an NADH-linked, enzyme-coupled ATPase assay adapted for 96-well microplates, with Vmax determined by fitting the ATPase calcium-dependence to the Hill function. Each well contained 2 μg or 7 μg of SR vesicles (optimized for skeletal or cardiac SR, respectively), 50 mM MOPS (pH 7.0), 100 mM KCl, 5 mM MgCl2, 1 mM EGTA, 0.2 mM NADH, 1 mM phosphoenol pyruvate, 5 IU pyruvate kinase, 5 IU lactate dehydrogenase, and 3.5 μg/mL A23187 (a calcium ionophore). CaCl2 was added to set free [Ca^2+] to the specific values. The assay was started upon addition of ATP at a final concentration of 5 mM, and read in a SpectraMax Plus microplate spectrophotometer. The results are summarized in Table 4, where A represents an increase in SERCA Vmax greater than 50% and B represents a value greater than 10% and less than 50%.

Row | Structure (SMILES) | EC50 [1] [nM] | viability at 20 µM [2] [%] | Glucose level reduction [3] | SERCA Vmax Increase [4]
1 | Cc1ccc2cccc(-c3nc(-c4ccc(OC(C)C)cc4)no3)c2n1 [Compound B1, 3-(4-Isopropoxyphenyl)-5-(2-methylquinolin-8-yl)-1,2,4-oxadiazole] | 1000 to 10000 | 10 to 50 | B (a 21-30% reduction in blood glucose) | 
2 | Cc1ccc2cccc(-c3nc(-c4ccc(Cl)cc4)no3)c2n1 [Compound B4, 3-(4-Chlorophenyl)-5-(2-methylquinolin-8-yl)-1,2,4-oxadiazole] | < 1000 | > 50 | C (a greater than 30% reduction in blood glucose levels) | A (an increase in SERCA Vmax greater than 50%)
3 | Cc1ccc2cccc(-c3nc(-c4ccc(Br)s4)no3)c2n1 [Compound B2, 3-(5-Bromothiophen-2-yl)-5-(2-methylquinolin-8-yl)-1,2,4-oxadiazole] | 1000 to 10000 | 10 to 50 | B (a 21-30% reduction in blood glucose) | 
4 | Cc1ccc2cccc(-c3nc(-c4cc(Br)cs4)no3)c2n1 [Compound B3, 3-(4-Bromothienyl-2-yl)-5-(2-methylquinolin-8-yl)-1,2,4-oxadiazole] | 1000 to 10000 | > 50 | A (a 10-20% reduction in blood glucose) | 
